According to PubChem BioAssay AID248 (DTP/NCI, 2004):
Where “and” joins values, the source holds several entries; their conditions need not be identical. Equal entries are not always repeated. Inconclusive results and toxic doses are left out. Rule as the data show it: active = T/C of 150% or more; inactive = T/C below 125%.

System: L1210 leukemia ip in BDF1 mice, survival T/C
Assay: NCI In Vivo Anticancer Drug Screen. Data for tumor model L1210 Leukemia (intraperitoneal) in B6D2F1 (BDF1) mice
Details: endpoint: mean survival time, higher = longer survival
Method in brief: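 Transplanted-tumor mice were given test agent; controls received vehicle only. Survival readings from the two groups were divided (treated over control).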

[1] = dose: 100.0 mg/kg/injection, schedule: Q04DX003 (ip), vehicle: saline with Tween-80
[2] = dose: 200.0 mg/kg/injection, schedule: Q04DX003 (ip), vehicle: saline with Tween-80
[3] = dose: 400.0 mg/kg/injection, schedule: Q04DX003 (ip), vehicle: saline with Tween-80
[4] = dose: 100.0 mg/kg/injection, schedule: Q01DX001 (ip), vehicle: carboxymethylcellulose (CMC)
[5] = dose: 200.0 mg/kg/injection, schedule: Q01DX001 (ip), vehicle: carboxymethylcellulose (CMC)
[6] = dose: 400.0 mg/kg/injection, schedule: Q01DX001 (ip), vehicle: carboxymethylcellulose (CMC)
[7] = dose: 50.0 mg/kg/injection, schedule: Q01DX001 (ip), vehicle: saline
[8] = dose: 100.0 mg/kg/injection, schedule: Q01DX001 (ip), vehicle: saline
[9] = dose: 200.0 mg/kg/injection, schedule: Q01DX001 (ip), vehicle: saline
[10] = dose: 400.0 mg/kg/injection, schedule: Q01DX001 (ip), vehicle: saline
[11] = dose: 100.0 mg/kg/injection, schedule: Q01DX001 (ip), vehicle: other
[12] = dose: 200.0 mg/kg/injection, schedule: Q01DX001 (ip), vehicle: other
[13] = dose: 400.0 mg/kg/injection, schedule: Q01DX001 (ip), vehicle: other
[14] = dose: 100.0 mg/kg/injection, schedule: Q01DX009 (ip), vehicle: saline

Measured: T/C

NC(CCl)=NCCCN1CCCCC1
inactive: dose: 12.5 mg/kg/injection, schedule: Q01DX009 (ip), vehicle: Klucel (hydroxypropylcellulose) (HPC) 104 % of control | dose: 12.5 mg/kg/injection, schedule: Q04DX002 (ip), vehicle: Klucel (hydroxypropylcellulose) (HPC) 107 % of control | dose: 25.0 mg/kg/injection, schedule: Q01DX009 (ip), vehicle: Klucel (hydroxypropylcellulose) (HPC) 96 % of control | dose: 25.0 mg/kg/injection, schedule: Q04DX002 (ip), vehicle: Klucel (hydroxypropylcellulose) (HPC) 96 % of control | dose: 50.0 mg/kg/injection, schedule: Q04DX002 (ip), vehicle: Klucel (hydroxypropylcellulose) (HPC) 105 % of control

O=C(O)c1cscc1-c1c2ccccc2cc2ccccc12
inactive: [1] 88 % of control | [2] 91 % of control | [3] 88 % of control

CC(C)C(NC(=O)C1CSC(C)(C)N1C=O)C(=O)OC1CCCCC1 (centres undefined)
inactive: [1] 97 % of control | [2] 101 % of control | [3] 90 % of control

Oc1ccc(C=NCC2CCCC[N-]2)c(O)c1.Oc1ccc(C=NCC2CCCC[N-]2)c(O)c1.[Ni+2] (centres undefined)
inactive: [1] 95 % of control | [2] 87 % of control

NCC(=O)O
inactive: [4] 100 % of control | [5] 92 % of control | [6] 100 % of control

CC(NP1(=O)OCC(C)(N)CO1)c1ccccc1 (centres undefined)
inactive: [7] 108 % of control | [8] 102 % of control | [9] 106 % of control | [10] 93 % of control

Cc1ccc(C(=O)C2CC=CCC2C(=O)c2ccc(C)cc2)cc1 (centres undefined)
inactive: dose: 50.0 mg/kg/injection, schedule: Q01DX009 (ip), vehicle: Klucel (hydroxypropylcellulose) (HPC) 97 % of control | dose: 100.0 mg/kg/injection, schedule: Q01DX009 (ip), vehicle: Klucel (hydroxypropylcellulose) (HPC) 91 % of control | dose: 200.0 mg/kg/injection, schedule: Q01DX009 (ip), vehicle: Klucel (hydroxypropylcellulose) (HPC) 92 % of control | dose: 400.0 mg/kg/injection, schedule: Q01DX009 (ip), vehicle: Klucel (hydroxypropylcellulose) (HPC) 90 % of control

O=S(=O)(c1ccccc1)N1CC1CBr (centres undefined)
inactive: [11] 105 % of control | [12] 100 % of control | [13] 108 % of control

C=C(Br)CNC(=O)CCC
inactive: dose: 5.0 mg/kg/injection, schedule: Q04DX003 (ip), vehicle: saline 92 % of control | dose: 10.0 mg/kg/injection, schedule: Q04DX003 (ip), vehicle: saline 97 % of control

CCC1NC(C(=O)O)CS1 (centres undefined)
inactive: [8] 96 % of control | [9] 100 % of control | [10] 89 % of control

Nc1nc(N)nc(NC(=O)CNCc2ccccc2)n1
inactive: [1] 101 % of control and 105 % of control | [2] 97 % of control and 107 % of control | [3] 97 % of control and 102 % of control

NC(=O)NNc1ccccc1
inactive: dose: 100.0 mg/kg/injection, schedule: Q04DX002 (ip), vehicle: Klucel (hydroxypropylcellulose) (HPC) 94 % of control | dose: 200.0 mg/kg/injection, schedule: Q04DX002 (ip), vehicle: Klucel (hydroxypropylcellulose) (HPC) 94 % of control | dose: 400.0 mg/kg/injection, schedule: Q04DX002 (ip), vehicle: Klucel (hydroxypropylcellulose) (HPC) 90 % of control

Nc1nc(N)c2nc3c(nc2n1)C(=O)N(c1ccc(C(=O)O)cc1)C3
inactive: dose: 12.5 mg/kg/injection, schedule: Q01DX001 (ip), vehicle: saline 102 % of control | dose: 25.0 mg/kg/injection, schedule: Q01DX001 (ip), vehicle: saline 91 % of control | [7] 102 % of control | [14] 90 % of control

c1ccc2c(c1)cc1ncc3cccc4ccc2c1c43
inactive: [1] 88 % of control | [2] 102 % of control | [3] 88 % of control

NC(=O)CC(O)C(N)=O (centres undefined)
inactive: [14] 94 % of control | dose: 100.0 mg/kg/injection, schedule: Q04DX003 (ip), vehicle: saline 104 % of control | dose: 200.0 mg/kg/injection, schedule: Q01DX009 (ip), vehicle: saline 95 % of control | dose: 200.0 mg/kg/injection, schedule: Q04DX003 (ip), vehicle: saline 106 % of control | dose: 400.0 mg/kg/injection, schedule: Q01DX009 (ip), vehicle: saline 99 % of control | dose: 400.0 mg/kg/injection, schedule: Q04DX003 (ip), vehicle: saline 96 % of control

O=C1CC23CCC(=O)C2(CC3)C1 (centres undefined)
inactive: dose: 75.0 mg/kg/injection, schedule: Q04DX002 (ip), vehicle: saline 103 % of control | dose: 150.0 mg/kg/injection, schedule: Q04DX002 (ip), vehicle: saline 103 % of control | dose: 300.0 mg/kg/injection, schedule: Q04DX002 (ip), vehicle: saline 100 % of control

O=C1CC(Cc2n[nH]c3c2CCC3)CC(=O)N1
inactive: [4] 103 % of control | dose: 100.0 mg/kg/injection, schedule: Q04DX003 (ip), vehicle: carboxymethylcellulose (CMC) 97 % of control | [5] 97 % of control | dose: 200.0 mg/kg/injection, schedule: Q04DX003 (ip), vehicle: carboxymethylcellulose (CMC) 94 % of control | [6] 105 % of control | dose: 400.0 mg/kg/injection, schedule: Q04DX003 (ip), vehicle: carboxymethylcellulose (CMC) 101 % of control

CN1C(=O)C2C=C(Cl)C1c1ccccc12 (centres undefined)
inactive: [11] 102 % of control | [12] 94 % of control | [13] 110 % of control

NC(=O)Nc1ccc(/C=C2\C=Cc3ccccc32)cc1
inactive: dose: 75.0 mg/kg/injection, schedule: Q01DX001 (ip), vehicle: saline 96 % of control | dose: 150.0 mg/kg/injection, schedule: Q01DX001 (ip), vehicle: saline 93 % of control | dose: 300.0 mg/kg/injection, schedule: Q01DX001 (ip), vehicle: saline 94 % of control

O=C1C=CC(=O)N1c1ccc(O)cc1
inactive: dose: 1.25 mg/kg/injection, schedule: Q01DX009 (ip), vehicle: Klucel (hydroxypropylcellulose) (HPC) 105 % of control | dose: 2.5 mg/kg/injection, schedule: Q01DX009 (ip), vehicle: Klucel (hydroxypropylcellulose) (HPC) 107 % of control | dose: 2.5 mg/kg/injection, schedule: Q04DX003 (ip), vehicle: Klucel (hydroxypropylcellulose) (HPC) 96 % of control | dose: 5.0 mg/kg/injection, schedule: Q01DX009 (ip), vehicle: Klucel (hydroxypropylcellulose) (HPC) 102 % of control | dose: 5.0 mg/kg/injection, schedule: Q04DX003 (ip), vehicle: Klucel (hydroxypropylcellulose) (HPC) 95 % of control

CCc1occ(C(=O)OC)c1C(=O)OC
inactive: dose: 100.0 mg/kg/injection, schedule: Q01DX009 (ip), vehicle: saline with Tween-80 96 % of control | [1] 95 % of control | dose: 200.0 mg/kg/injection, schedule: Q01DX009 (ip), vehicle: saline with Tween-80 96 % of control | [2] 94 % of control | dose: 400.0 mg/kg/injection, schedule: Q01DX009 (ip), vehicle: saline with Tween-80 100 % of control | [3] 104 % of control

CCOC(OCC)/C(C)=N\NC(N)=S
inactive: dose: 15.0 mg/kg/injection, schedule: Q01DX Z (ip), vehicle: carboxymethylcellulose (CMC) 98 % of control | dose: 30.0 mg/kg/injection, schedule: Q01DX Z (ip), vehicle: carboxymethylcellulose (CMC) 102 % of control | dose: 60.0 mg/kg/injection, schedule: Q01DX Z (ip), vehicle: carboxymethylcellulose (CMC) 96 % of control | dose: 120.0 mg/kg/injection, schedule: Q01DX Z (ip), vehicle: carboxymethylcellulose (CMC) 86 % of control | dose: 120.0 mg/kg/injection, schedule: Q01DX Z (oral), vehicle: carboxymethylcellulose (CMC) 95 % of control | dose: 240.0 mg/kg/injection, schedule: Q01DX Z (oral), vehicle: carboxymethylcellulose (CMC) 97 % of control | dose: 480.0 mg/kg/injection, schedule: Q01DX Z (oral), vehicle: carboxymethylcellulose (CMC) 94 % of control

CC(=O)c1ccc(C(C)(C)C)cc1
inactive: [4] 105 % of control | [5] 100 % of control | [6] 100 % of control

O=C(COc1ccc(Cl)c(Cl)c1)NCc1ccc[n+](Cc2cc(Cl)ccc2S(=O)(=O)F)c1
inactive: [1] 101 % of control | [2] 114 % of control | [3] 88 % of control

CCCC(=O)CC(=O)CC(C)C
inactive: [7] 100 % of control | [8] 94 % of control | [9] 107 % of control | [10] 94 % of control
